Assays:
[1] = tested on: Staphylococcus aureus ATCC 6538; experiment: Time kill method (ASTM E 2315), S. aureus; assay type: cell-based; settings: 0.5% ADBAC Quat
Experimental: (§1) (1) Determination of Time Kill Activity: • (a) The activity of antimicrobial compositions was measured by the time kill method [ASTM E 2315 Standard Guide for Assessment of Antimicrobial Activity Using a Time Kill Procedure], whereby the survival of challenged organisms exposed to an antimicrobial test composition is […] as a function of time. In this test, a diluted aliquot of the composition is brought into contact with a known population of test bacteria for a specified time period at a specified temperature. The test composition is neutralized at the end of the time period, which arrests the antimicrobial activity of the composition. The percent or, alternatively, log reduction from the original bacteria population is calculated. In general, the time kill method is known to those skilled in the art. In addition, comparative data on the foam profile of representative systems is shown. • (b) The composition can be tested at any concentration from 0.01-100%. The choice of which concentration to use is at the discretion of the investigator, and suitable concentrations are readily determined by those skilled in the art. All testing if performed in triplicate, the results are combined, and the average log reduction is reported. • (c) The choice of contact time period also is at the discretion of the investigator. Any contact time period can be chosen. Typical contact times range from 15 second to 5 minutes, with 30 seconds and 1 minute being typical contact times. The contact temperature also can be any temperature, typically room temperature, or about 25 degrees Celsius. • (d) The microbial suspension, or test inoculum, is prepared by growing a microbial culture on any appropriate solid media (e.g., agar). The microbial population then is washed from the agar with sterile physiological saline and the population of the microbial suspension is adjusted to about 10^8 colony forming units per ml (cfu/ml). • (e) The table below lists the test microbial cultures used in the following tests and includes the name of the bacteria, the ATCC (American Type Culture Collection) identification number, and the abbreviation for the name of the organism used hereafter.
(§2) S. aureus is a Gram positive bacteria, whereas, E. coli is a Gram negative bacteria.
(§3) The log reduction is calculated using the formula: Log reduction=log10(numbers control)−log10(test sample survivors).
(§4) The following table correlates percent reduction in microbial population to log reduction: […]

[2] = tested on: Escherichia coli ATCC 112229; experiment: Time kill method (ASTM E 2315), E. coli; assay type: cell-based; settings: 0.5% ADBAC Quat
Experimental: as §1, §2, §3, §4

[3] = 30 seconds exposure, 1.95% w/w foam boosting agent (amine oxide), 1.25% Poly Trimoniumhydroxypropyl Cocoglucosides Chloride
[4] = 30 seconds exposure, 3.0% w/w foam boosting agent (amine oxide), 1.25% Poly Trimoniumhydroxypropyl Cocoglucosides Chloride
[5] = 30 seconds exposure, 4.2% w/w foam boosting agent (amine oxide), 1.25% Poly Trimoniumhydroxypropyl Cocoglucosides Chloride
[6] = Table 10, 1.25% w/w quaternized sugar-derived surfactant, 1.95% Alkyl Dimethyl Amine Oxide

| Substance | S. aureus Log Reduction [1, 6] | E. coli Log Reduction [2, 6] | also measured |
| --- | --- | --- | --- |
| Alkyl Dimethyl Amine Oxide |  |  | S. aureus Log Reduction [1, 3]: >5.5; S. aureus Log Reduction [1, 4]: >5.5; S. aureus Log Reduction [1, 5]: >5.5; E. coli Log Reduction [2, 3]: >5.5; E. coli Log Reduction [2, 4]: >5.5; E. coli Log Reduction [2, 5]: >5.5 |
| Cocoglucosides Hydroxypropyl-trimonium Chloride [TM8610] | >5.0 | >5.0 |  |
| Lauridimonium-hydroxypropyl Cocoglucosides Chloride [Formula L8610] | >5.0 | >5.0 |  |
| Lauridimonium-hydroxypropyl Laurylglucosides Chloride [Formula L1210] | >5.0 | >5.0 |  |
| Laurylglucosides Hydroxypropyl-trimonium Chloride [TM1212] | >5.0 | >5.0 |  |
| Stearyldimonium-hydroxypropyl Laurylglucosides Chloride [Formula S1218] | >5.0 | >5.0 |  |

Reference: US9474703B2, “Antimicrobial compositions containing cationic active ingredients and quaternary sugar derived surfactants” (Ecolab USA Inc., priority 2010, dated 2016)
